{"source": "patent US20040156920A1", "about": "“Extracts from plant and non-plant biomass and uses thereof” (priority 2000, published 2004)", "origin": "cited, not measured here", "key": {"human blood PMN cells": {"tested_on": "human blood PMN cells", "design": "phagocytosis at higher concentration: dose or concentration left out as unconfirmed"}, "male albino rats": {"tested_on": "male albino rats", "conditions": "20 mg/kg body weight daily subcutaneous"}, "[1]": {"tested_on": "classical complement pathway"}}, "data": [{"compound": "Wheat germ agglutinin", "values": [{"measurement": "phagocytosis at higher concentration", "setting": "human blood PMN cells", "value": "strongly inhibited phagocytosis"}, {"measurement": "promotion of phagocytosis compared to Zymosan-A control", "setting": "human blood PMN cells; 0.5-1.0 mg/ml", "value": 1.8, "unit": "times"}]}, {"compound": "CCCCCCCCCCCC1=C(O)C(=O)C=C(O)C1=O", "note": "[embelin]", "values": [{"measurement": "sperm count and other fertility parameters", "setting": "male albino rats", "value": "inhibition of sperm count and other fertility parameters"}]}, {"compound": "CC1(C)[C@@H](O)CC[C@]2(C)[C@H]3C(=O)C=C4[C@H]5C[C@@](C)(C(=O)O)CC[C@]5(C)CC[C@@]4(C)[C@]3(C)CC[C@@H]12", "note": "[Beta-glycyrrhetinic acid]", "values": [{"measurement": "IC50", "setting": "[1]", "value": 35, "unit": "µM"}]}]}
